Laboratory results from PubChem BioAssay (NCI).
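These data come from cells grown in 96-well plates and exposed to compound for 48 hours at five concentrations. At the GI50, growth is halved. TGI denotes the concentration required for complete inhibition of growth.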

Legend:
Experiment in all cases: NCI anticancer screen, dose series, 48 h
A549 NSCLC = tested on: A549 NSCLC
HCC-2998 colon = tested on: HCC-2998 colon
UACC-62 melanoma = tested on: UACC-62 melanoma
SK-OV-3 ovarian = tested on: SK-OV-3 ovarian
MCF7 breast = tested on: MCF7 breast
IGROV1 ovarian = tested on: IGROV1 ovarian
K-562 leukemia = tested on: K-562 leukemia
CCRF-CEM leukemia = tested on: CCRF-CEM leukemia
HOP-62 NSCLC = tested on: HOP-62 NSCLC
NCI-H226 lung = tested on: NCI-H226 lung
DU-145 prostate = tested on: DU-145 prostate
HL-60(TB) leukemia = tested on: HL-60(TB) leukemia
SR leukemia = tested on: SR leukemia
MOLT-4 leukemia = tested on: MOLT-4 leukemia
OVCAR-8 ovarian = tested on: OVCAR-8 ovarian
SN12C renal = tested on: SN12C renal
NCI-H23 lung = tested on: NCI-H23 lung
HS 578T breast = tested on: HS 578T breast
HCT-116 colon = tested on: HCT-116 colon
UO-31 renal = tested on: UO-31 renal
NCI-H460 lung = tested on: NCI-H460 lung
U251 CNS = tested on: U251 CNS
SF-295 CNS = tested on: SF-295 CNS
M14 melanoma = tested on: M14 melanoma
MDA-MB-435 = tested on: MDA-MB-435
BT-549 breast = tested on: BT-549 breast
LOX IMVI melanoma = tested on: LOX IMVI melanoma
SK-MEL-5 melanoma = tested on: SK-MEL-5 melanoma

**Q.** For Cn1cc(C2=C(c3cn(C)c4ccc(Cl)cc34)C(=O)NC2=O)c2ccccc21, which GI50 (A549 NSCLC) is on record?
**A.** 2.12 µM

**Q.** And the TGI (A549 NSCLC)?
**A.** 16.8 µM

**Q.** What about the GI50 (HCC-2998 colon) of the same compound?
**A.** 6.76 µM

**Q.** What about the TGI (HCC-2998 colon) of the same compound?
**A.** > 23.9 µM

**Q.** And the GI50 (UACC-62 melanoma)?
**A.** 2.42 µM

**Q.** And the TGI (UACC-62 melanoma)?
**A.** 8.36 µM

**Q.** And the GI50 (SK-OV-3 ovarian)?
**A.** 2.87 µM

**Q.** And the TGI (SK-OV-3 ovarian)?
**A.** > 21 µM

**Q.** What about the GI50 (MCF7 breast) of the same compound?
**A.** 1.25 µM

**Q.** And the TGI (MCF7 breast)?
**A.** > 25 µM

**Q.** And the GI50 (IGROV1 ovarian)?
**A.** 6.51 µM

**Q.** What about the TGI (IGROV1 ovarian) of the same compound?
**A.** > 21.7 µM

**Q.** What about the GI50 (K-562 leukemia) of the same compound?
**A.** 1.35 µM

**Q.** And the TGI (K-562 leukemia)?
**A.** > 25 µM

**Q.** What about the GI50 (CCRF-CEM leukemia) of the same compound?
**A.** 1.18 µM

**Q.** What about the TGI (CCRF-CEM leukemia) of the same compound?
**A.** 19.2 µM

**Q.** What about the GI50 (HOP-62 NSCLC) of the same compound?
**A.** 3.79 µM

**Q.** What about the TGI (HOP-62 NSCLC) of the same compound?
**A.** 17.8 µM

**Q.** What about the GI50 (NCI-H226 lung) of the same compound?
**A.** 4.56 µM

**Q.** What about the TGI (NCI-H226 lung) of the same compound?
**A.** 17.4 µM

**Q.** And the GI50 (DU-145 prostate)?
**A.** 8.45 µM

**Q.** What about the TGI (DU-145 prostate) of the same compound?
**A.** > 25 µM

**Q.** And the GI50 (HL-60(TB) leukemia)?
**A.** 1.4 µM

**Q.** What about the TGI (HL-60(TB) leukemia) of the same compound?
**A.** 8.82 µM

**Q.** What about the GI50 (SR leukemia) of the same compound?
**A.** 1.18 µM

**Q.** What about the TGI (SR leukemia) of the same compound?
**A.** 16.2 µM

**Q.** What about the GI50 (MOLT-4 leukemia) of the same compound?
**A.** 2.17 µM

**Q.** And the TGI (MOLT-4 leukemia)?
**A.** 14.9 µM

**Q.** What about the GI50 (OVCAR-8 ovarian) of the same compound?
**A.** 5.16 µM

**Q.** What about the TGI (OVCAR-8 ovarian) of the same compound?
**A.** > 21.6 µM

**Q.** What about the GI50 (SN12C renal) of the same compound?
**A.** 3.87 µM

**Q.** What about the TGI (SN12C renal) of the same compound?
**A.** 15.7 µM

**Q.** And the GI50 (NCI-H23 lung)?
**A.** 4.64 µM

**Q.** And the TGI (NCI-H23 lung)?
**A.** 14.6 µM

**Q.** And the GI50 (HS 578T breast)?
**A.** 2.11 µM

**Q.** And the TGI (HS 578T breast)?
**A.** > 23.9 µM

**Q.** And the GI50 (HCT-116 colon)?
**A.** 1.52 µM

**Q.** And the TGI (HCT-116 colon)?
**A.** 7.42 µM

**Q.** And the GI50 (UO-31 renal)?
**A.** 2.54 µM

**Q.** What about the TGI (UO-31 renal) of the same compound?
**A.** 11.7 µM

**Q.** And the GI50 (NCI-H460 lung)?
**A.** 3.25 µM

**Q.** And the TGI (NCI-H460 lung)?
**A.** 8.9 µM

**Q.** What about the GI50 (U251 CNS) of the same compound?
**A.** 2.21 µM

**Q.** What about the TGI (U251 CNS) of the same compound?
**A.** 14 µM

**Q.** And the GI50 (SF-295 CNS)?
**A.** 1.6 µM

**Q.** What about the TGI (SF-295 CNS) of the same compound?
**A.** 8.02 µM

**Q.** What about the GI50 (M14 melanoma) of the same compound?
**A.** 2.63 µM

**Q.** And the TGI (M14 melanoma)?
**A.** > 24 µM

**Q.** What about the GI50 (MDA-MB-435) of the same compound?
**A.** 0.645 µM

**Q.** What about the TGI (MDA-MB-435) of the same compound?
**A.** 2.85 µM

**Q.** What about the GI50 (BT-549 breast) of the same compound?
**A.** 3.56 µM

**Q.** And the TGI (BT-549 breast)?
**A.** 9.03 µM

**Q.** What about the GI50 (LOX IMVI melanoma) of the same compound?
**A.** 2.74 µM

**Q.** What about the TGI (LOX IMVI melanoma) of the same compound?
**A.** 11.9 µM

**Q.** What about the GI50 (SK-MEL-5 melanoma) of the same compound?
**A.** 3.47 µM

**Q.** And the TGI (SK-MEL-5 melanoma)?
**A.** 8.28 µM
